Measured values as given in patent US4198429A, “Esters of 5-methyl-10,11-dihydroprostaglandin-A1” (Hoechst Aktiengesellschaft, priority 1976, dated 1980).

What was measured:
Format in all cases: in vivo, Guinea pig
[1] = test system: spasm caused by acetylcholine; test: Bronchospasmolytic activity, modified Konzett-Rossler test, acetylcholine-induced bronchospasm; conditions: dose inhibiting effect of asthmogenic agent to 50% of initial value, male white Guinea pigs, anesthesized, V. jugularis
Protocol: (§1) To test the bronchospasmolytic activity of the compounds of the invention the following experiments were carried through:
(§2) TEST ACCORDING TO KONZETT-ROSSLER
(§3) To test the bronchospasmolytic activity the respiratory volume was measured by the method of Konzett-Rossler, according to which the air volume is measured which is taken up by the lung when the maximum inflation pressure is maintained constant and a constant volume is offered by high pressure respiration. Capacity variations in the respiratory tract result in an increase or decrease of the amount of air taken up by the lung under the given constant inflation pressure.
(§4) As test animals male white Guinea pigs having a weight of from 400 to 500 grams were used which had been anesthesized with 10 mg/kg i.p. of Evipan and 200 mg/kg i.p. of urethane. The substance to be tested was administered by means of a catheter in the V. jugularis. The positive pressure respiration depended on the normal respiratory volume of the test animal and could be adapted suitably and readily to the individual test animal. In the tests carried through the pressure indicated by Rosenthal and Dervinis of 80 mm H2 O was used. During the recovery phase after a bronchospastic reaction the flexible hose leading to the water manometer was clamped off for a short period of time in order to open deflating lung segments. The respiration frequency amounted to 64-72 per minute. The respiratory volume was measured according to the slightly modified Konzett-Rossler method wherein the piston recorder was replaced by a back-pressure tube according to Fleisch (type 0000). The occuring pressure difference was recorded by a difference pressure recorder of the type Statham PM 97 CT. To record the measured values a multi-channel recorder of Messrs. Hellige was used. The substance to be tested was used in the form of a standard solution in absolute alcohol. Directly prior to the start of the test it was diluted to the required final concentration with phosphate buffer (pH 7.4). The asthmogenic solution was prepared with double distilled water.
As asthmogenic agents histamine dihydrochloride, acetyl choline chloride and sertonine creatinine sulfate were used. To reduce the error resulting from individual differences in the bronchospasm intensity with a uniform dose of asthmogenic agent, the dosage unit was chosen such that an about 70 to 80% decrease of the absorption capacity of the lung was obtained. The experimental data were subjected to the regression analysis according to the probit transformation and the equation of the straight lines of regression y=a+b log x was calculated. In this manner the average inhibition dose (ID50 =the dose which inhibits the effect of the asthmogenic agent to 50% of the initial value) was found. […]

bronchial muscles = test: Bronchospasmolytic effect and its duration, modified Konzett-Rossler test; conditions: male white Guinea pigs, anesthesized; V. jugularis; asthmogenic agent not specified
Protocol: as §1, §2, §3, §4
(§5) As asthmogenic agents histamine dihydrochloride, acetyl choline chloride and sertonine creatinine sulfate were used. To reduce the error resulting from individual differences in the bronchospasm intensity with a uniform dose of asthmogenic agent, the dosage unit was chosen such that an about 70 to 80% decrease of the absorption capacity of the lung was obtained. The experimental data were subjected to the regression analysis according to the probit transformation and the equation of the straight lines of regression y=a+b log x was calculated. In this manner the average inhibition dose (ID50 =the dose which inhibits the effect of the asthmogenic agent to 50% of the initial value) was found. Additionally, the results obtained by carrying out a simple variance analysis in the Duncan Test were compared with the control.

[2] = test system: bronchospasm caused by histamine; test: Bronchospasmolytic activity, modified Konzett-Rossler test, histamine-induced bronchospasm; conditions: dose inhibiting effect of asthmogenic agent to 50% of initial value, male white Guinea pigs, anesthesized, V. jugularis
Protocol: as §1, §2, §3, §4, §5

[3] = test system: spasm initiated by serotonin; test: Bronchospasmolytic activity, modified Konzett-Rossler test, serotonin-induced bronchospasm; conditions: dose inhibiting effect of asthmogenic agent to 50% of initial value, male white Guinea pigs, anesthesized, V. jugularis
Protocol: as §1, §2, §3
as §4, with “The substance to be tested was used in the form of a standard solution in absolute alcohol. Directly prior to the start of the test it was diluted to the required final concentration with phosphate buffer (pH 7.4). The asthmogenic solution was prepared with double distilled water.” left out
As asthmogenic agents histamine dihydrochloride, acetyl choline chloride and sertonine creatinine sulfate were used. […] The experimental data were subjected to the regression analysis according to the probit transformation and the equation of the straight lines of regression y=a+b log x was calculated. […]

Structure (SMILES) | ID50 values acetylcholine [1] | duration of effect (bronchial muscles) | ID50 values histamine [2] | ID50 values serotonin [3]
CCCCCCOC(=O)CCCC(C)CC[C@H]1C(=O)CC[C@@H]1/C=C/[C@@H](O)CCCCC (stereo partly shown) [Example 1, 5-Methyl-10,11-dihydroproxtaglandin-A1 n-hexyl ester] | 3 ng/animal | 30 min | 1 ng/animal | –
CCCCCCCCCCOC(=O)CCCC(C)CC[C@H]1C(=O)CC[C@@H]1/C=C/[C@@H](O)CCCCC (stereo partly shown) [Example 2, 5-Methyl-10,11-dihydroprostaglandin-A1 n-decyl ester] | – | 30 to 45 min | 4.2 ng/animal | –
CCCCC[C@H](O)/C=C/[C@H]1CCC(=O)[C@@H]1CCC(C)CCCC(=O)OCCCC (stereo partly shown) [Example 3, 5-Methyl-10,11-dihydroprostaglandin-A1 n-butyl ester] | 6.9 ng/animal | 15 to 20 min | 0.63 ng/animal | 1.2 ng/animal
CCCCC[C@H](O)/C=C/[C@H]1CCC(=O)[C@@H]1CCC(C)CCCC(=O)OCCCC(C)(C)C (stereo partly shown) [Example 4] | – | 20 to 25 min | 7 ng/animal | –
CCCCC[C@H](O)/C=C/[C@H]1CCC(=O)[C@@H]1CCC(C)CCCC(=O)OC1CCCCC1 (stereo partly shown) [Example 6, 5-Methyl-10,11-dihydroprostaglandin-A1 cyclohexyl ester] | – | 60 min | 7.5 ng/animal | –
CCCCC[C@H](O)/C=C/[C@H]1CCC(=O)[C@@H]1CCC(C)CCCC(=O)OCCOCC (stereo partly shown) [Example 7, 5-Methyl-10,11-dihydroprostaglandin-A1-2-ethoxyethyl ester] | 0.88 ng/animal | 10 to 20 min | 0.4 ng/animal | 0.86 ng/animal
CCCCC[C@H](O)/C=C/[C@H]1CCC(=O)[C@@H]1CCC(C)CCCC(=O)OCCCc1ccccc1 (stereo partly shown) [Example 9, 5-Methyl-10,11-dihydroprostaglandin-A1-3-phenylpropyl ester] | – | 25 min | 1 ng/animal | –
CCCCC[C@H](O)/C=C/[C@H]1CCC(=O)[C@@H]1CCC(C)CCCC(=O)O (stereo partly shown) [comp. II, 5-methyl-10,11-dihydroprostaglandin-A1] | 10 ng/animal | – | 5 ng/animal | 9 ng/animal
